“And” between values parts separate entries of the source, which are not always exact repeats. Equal values may be shown once.
Legend:
[1] = xn = mol fraction of the nth substance listed; conditions: 298 K; 100 kPa; Crystal of intercomponent compound 1; X-ray diffraction; x2 = 0.542
[2] = specific heat capacity at constant pressure; xn = mol fraction of the nth substance listed; conditions: 100 kPa, Crystal of intercomponent compound 1, x2 = 0.542

[Te] [tellurium] + [In]
Conditions	mass density [kg/m3]
[1]	6307

[2]
Conditions	specific heat capacity
10.11 K, relaxation calorimetry	13.3 J/K/kg and 13.26 J/K/kg
10.12 K, relaxation calorimetry	13.3 J/K/kg
12.12 K, relaxation calorimetry	20.6 J/K/kg and 20.59 J/K/kg
12.13 K, relaxation calorimetry	20.65 J/K/kg
14.14 K, relaxation calorimetry	28.68 J/K/kg and 28.67 J/K/kg and 28.69 J/K/kg
16.15 K, relaxation calorimetry	36.99 J/K/kg
16.16 K, relaxation calorimetry	36.96 J/K/kg and 37.07 J/K/kg
18.17 K, relaxation calorimetry	45.25 J/K/kg
18.18 K, relaxation calorimetry	45.21 J/K/kg
20.18 K, relaxation calorimetry	53.21 J/K/kg
20.19 K, relaxation calorimetry	53.01 J/K/kg and 53.25 J/K/kg
22.2 K, relaxation calorimetry	60.8 J/K/kg and 61.01 J/K/kg and 60.84 J/K/kg
24.22 K, relaxation calorimetry	68.02 J/K/kg and 68.1 J/K/kg
26.23 K, relaxation calorimetry	74.95 J/K/kg
26.24 K, relaxation calorimetry	74.91 J/K/kg and 74.95 J/K/kg
28.25 K, relaxation calorimetry	81.26 J/K/kg and 81.31 J/K/kg
30.27 K, relaxation calorimetry	87.16 J/K/kg
35.3 K, relaxation calorimetry	101.02 J/K/kg
35.31 K, relaxation calorimetry	100.94 J/K/kg and 100.9 J/K/kg
40.34 K, relaxation calorimetry	112.78 J/K/kg and 112.99 J/K/kg
40.35 K, relaxation calorimetry	112.74 J/K/kg
45.38 K, relaxation calorimetry	122.93 J/K/kg and 123.09 J/K/kg
45.39 K, relaxation calorimetry	122.76 J/K/kg
50.41 K, relaxation calorimetry	132.54 J/K/kg
50.42 K, relaxation calorimetry	132.13 J/K/kg
50.43 K, relaxation calorimetry	132.04 J/K/kg
55.43 K, relaxation calorimetry	140.42 J/K/kg
55.45 K, relaxation calorimetry	139.92 J/K/kg
55.47 K, relaxation calorimetry	139.72 J/K/kg
60.47 K, relaxation calorimetry	146.93 J/K/kg
60.49 K, relaxation calorimetry	146.4 J/K/kg
60.51 K, relaxation calorimetry	146.44 J/K/kg
65.49 K, relaxation calorimetry	153.78 J/K/kg
65.53 K, relaxation calorimetry	152.79 J/K/kg
65.56 K, relaxation calorimetry	152.5 J/K/kg
70.51 K, relaxation calorimetry	159.39 J/K/kg
70.57 K, relaxation calorimetry	158.16 J/K/kg
70.61 K, relaxation calorimetry	157.78 J/K/kg
75.55 K, relaxation calorimetry	164.01 J/K/kg
75.61 K, relaxation calorimetry	162.86 J/K/kg
75.65 K, relaxation calorimetry	162.69 J/K/kg
80.58 K, relaxation calorimetry	169.46 J/K/kg
80.64 K, relaxation calorimetry	167.77 J/K/kg
80.7 K, relaxation calorimetry	167.02 J/K/kg
85.6 K, relaxation calorimetry	173.13 J/K/kg
85.68 K, relaxation calorimetry	172.14 J/K/kg
85.74 K, relaxation calorimetry	170.65 J/K/kg
90.65 K, relaxation calorimetry	176.64 J/K/kg
90.72 K, relaxation calorimetry	175.44 J/K/kg
90.77 K, relaxation calorimetry	175.19 J/K/kg
95.67 K, relaxation calorimetry	179.52 J/K/kg
95.75 K, relaxation calorimetry	178.16 J/K/kg
95.8 K, relaxation calorimetry	177.96 J/K/kg
100.78 K, relaxation calorimetry	180.43 J/K/kg
100.82 K, relaxation calorimetry	179.89 J/K/kg
100.89 K, relaxation calorimetry	181.75 J/K/kg
106.78 K, relaxation calorimetry	184.18 J/K/kg
106.86 K, relaxation calorimetry	182.66 J/K/kg
106.88 K, relaxation calorimetry	182.86 J/K/kg
113.77 K, relaxation calorimetry	186.45 J/K/kg
113.82 K, relaxation calorimetry	185.55 J/K/kg
113.85 K, relaxation calorimetry	185.13 J/K/kg
120.77 K, relaxation calorimetry	188.39 J/K/kg
120.8 K, relaxation calorimetry	188.64 J/K/kg
120.84 K, relaxation calorimetry	187.28 J/K/kg
127.76 K, relaxation calorimetry	189.79 J/K/kg
127.78 K, relaxation calorimetry	190.45 J/K/kg
127.81 K, relaxation calorimetry	189.51 J/K/kg
134.73 K, relaxation calorimetry	191.98 J/K/kg
134.75 K, relaxation calorimetry	191.11 J/K/kg
134.77 K, relaxation calorimetry	191.32 J/K/kg
141.7 K, relaxation calorimetry	193.51 J/K/kg
141.73 K, relaxation calorimetry	192.35 J/K/kg
141.74 K, relaxation calorimetry	193.09 J/K/kg
148.67 K, relaxation calorimetry	194.87 J/K/kg
148.71 K, relaxation calorimetry	194.62 J/K/kg and 193.75 J/K/kg
155.61 K, relaxation calorimetry	195.65 J/K/kg
155.64 K, relaxation calorimetry	195.94 J/K/kg and 195.82 J/K/kg
162.58 K, relaxation calorimetry	197.26 J/K/kg
162.62 K, relaxation calorimetry	197.38 J/K/kg
169.55 K, relaxation calorimetry	198.54 J/K/kg
169.58 K, relaxation calorimetry	198.37 J/K/kg
169.59 K, relaxation calorimetry	198.42 J/K/kg
176.53 K, relaxation calorimetry	198.87 J/K/kg
176.56 K, relaxation calorimetry	198.83 J/K/kg
176.57 K, relaxation calorimetry	198.87 J/K/kg
183.5 K, relaxation calorimetry	199.69 J/K/kg
183.54 K, relaxation calorimetry	199.69 J/K/kg
190.47 K, relaxation calorimetry	200.4 J/K/kg
190.51 K, relaxation calorimetry	200.44 J/K/kg and 200.48 J/K/kg
197.43 K, relaxation calorimetry	200.56 J/K/kg
197.47 K, relaxation calorimetry	200.68 J/K/kg and 200.77 J/K/kg
204.39 K, relaxation calorimetry	201.18 J/K/kg
204.43 K, relaxation calorimetry	201.3 J/K/kg
204.44 K, relaxation calorimetry	201.34 J/K/kg
211.34 K, relaxation calorimetry	201.67 J/K/kg
211.38 K, relaxation calorimetry	201.76 J/K/kg
211.39 K, relaxation calorimetry	201.59 J/K/kg
218.29 K, relaxation calorimetry	201.76 J/K/kg
218.34 K, relaxation calorimetry	201.92 J/K/kg
225.27 K, relaxation calorimetry	202.09 J/K/kg
225.31 K, relaxation calorimetry	202.29 J/K/kg and 202.17 J/K/kg
226.53 K, relaxation calorimetry	200.85 J/K/kg
226.54 K, relaxation calorimetry	201.01 J/K/kg
231.55 K, relaxation calorimetry	201.3 J/K/kg
231.56 K, relaxation calorimetry	201.22 J/K/kg
232.22 K, relaxation calorimetry	202.38 J/K/kg
232.27 K, relaxation calorimetry	202.33 J/K/kg
232.28 K, relaxation calorimetry	202.29 J/K/kg
236.56 K, relaxation calorimetry	201.39 J/K/kg
236.57 K, relaxation calorimetry	201.47 J/K/kg
239.17 K, relaxation calorimetry	202 J/K/kg
239.24 K, relaxation calorimetry	202.09 J/K/kg and 202.05 J/K/kg
241.58 K, relaxation calorimetry	201.67 J/K/kg
241.6 K, relaxation calorimetry	201.26 J/K/kg
246.14 K, relaxation calorimetry	201.88 J/K/kg
246.19 K, relaxation calorimetry	202.09 J/K/kg and 202.05 J/K/kg
246.51 K, relaxation calorimetry	201.51 J/K/kg
246.52 K, relaxation calorimetry	201.92 J/K/kg
251.63 K, relaxation calorimetry	202.09 J/K/kg
251.64 K, relaxation calorimetry	202 J/K/kg
253.09 K, relaxation calorimetry	202.17 J/K/kg
253.15 K, relaxation calorimetry	202.13 J/K/kg and 202.17 J/K/kg
256.55 K, relaxation calorimetry	202.29 J/K/kg
256.56 K, relaxation calorimetry	202.17 J/K/kg
260.04 K, relaxation calorimetry	202.25 J/K/kg
260.1 K, relaxation calorimetry	202.25 J/K/kg and 202.29 J/K/kg
261.55 K, relaxation calorimetry	202.25 J/K/kg
261.57 K, relaxation calorimetry	202.13 J/K/kg
266.18 K, Extra sensitive DSC	203.98 J/K/kg
270 K, Extra sensitive DSC	203.98 J/K/kg
275 K, Extra sensitive DSC	204.48 J/K/kg
280 K, Extra sensitive DSC	204.89 J/K/kg
285 K, Extra sensitive DSC	205.18 J/K/kg
290 K, Extra sensitive DSC	205.59 J/K/kg
295 K, Extra sensitive DSC	206.09 J/K/kg
300 K, Extra sensitive DSC	206.5 J/K/kg
305 K, Extra sensitive DSC	207.08 J/K/kg
310 K, Extra sensitive DSC	207.28 J/K/kg
315 K, Extra sensitive DSC	207.28 J/K/kg
320 K, Extra sensitive DSC	207.28 J/K/kg
325 K, Extra sensitive DSC	207.49 J/K/kg
328.56 K, Extra sensitive DSC	207.7 J/K/kg
332.56 K, Extra sensitive DSC	209.1 J/K/kg
335.17 K, Extra sensitive DSC	209.43 J/K/kg
336.9 K, Extra sensitive DSC	209.39 J/K/kg
339.51 K, Extra sensitive DSC	209.35 J/K/kg
342.11 K, Extra sensitive DSC	209.39 J/K/kg
344.71 K, Extra sensitive DSC	209.18 J/K/kg
347.32 K, Extra sensitive DSC	209.02 J/K/kg
349.92 K, Extra sensitive DSC	208.77 J/K/kg
352.53 K, Extra sensitive DSC	208.4 J/K/kg
355.13 K, Extra sensitive DSC	208.48 J/K/kg
357.73 K, Extra sensitive DSC	208.27 J/K/kg
358.6 K, Extra sensitive DSC	208.15 J/K/kg

From the NIST ThermoML archive (doi:10.1016/j.jct.2018.08.013)
